The values that follow come from US9018251B2, “Method for treating brain cancer or reducing temozolomide-resistance of brain cancer cells” (China Medical University, priority 2011, dated 2015).

The structures appear in SMILES notation. pIC50: −log10 of the molar value. Where two headings read alike, the source gives them in different places. Bounds are passed on as bounds.

The test system of assay [1] is brain cancer cell line GBM22-TMZ. Nature of the assay: In vivo survival analysis, glioblastoma orthotopic xenografts. The arrangement: species or system Mice. The method, then:
A survival analysis was carried out to investigate the antiglioma effect of the combination of (Z)-butylidenephthalide and temozolomide in vivo. Mice with established glioblastoma orthotopic xenografts from brain cancer cell line GBM22-TMZ were randomized to carry out the therapy with indicated temozolomide (66 mg/kg/day; 5 days), (Z)-butylidenephthalide (50 or 100 mg/kg/day; 5 days), or combinations thereof. Observation was recorded until the mice reached a moribund state, and survival results are shown as Kaplan-Meier survival curves.

Assay [2] deals with brain cancer cell line DBTRG. Nature of the assay: MTT cell viability assay, DBTRG. The format is cell-based. The conditions noted are these: for pIC50: 48 h, read-out: IC50 value; for viability at 500 µM: Concentration 500 μM. The method, then:
(§1) The MTT (3-[4,5-dimethylthiahiazo-2-yl]-2,4-dipheny-tetrazolium bromide) cell viability assay was used to study the mortality effect of temozolomide to various brain cancer cell lines. (See Pauwels et al., J. Virol. Methods, 1988, 20, 309-321 for the MTT cell viability assay, which is incorporated hereinto by reference).
The cell viability rate and mortality rate were calculated based on the absorbance.

For assay [3], the system named is brain cancer cell line 8401. Nature of the assay: MTT cell viability assay, 8401. It counts as cell-based.
Excerpt: as §1

Assay [4] concerns brain cancer cell line GBM22-TMZ. Nature of the assay: MTT cell viability assay, GBM22-TMZ (with CalcuSyn combination index). The conditions noted are these: Homo sapiens, 48 h.
Procedure: In a 96-microwell plate, each well was cultured with 3×10^3 cells of brain cancer cell line 8901 which have temozolomide-resistance. The next day, different concentrations of temozolomide (0 to 1200 μM, 200 μL) or the combination of temozolomide and (Z)-butylidenephthalide (0 to 200 μM, 200 μL) were dropped into the well along the interior wall of the plate. Four microwell plates were used for each analysis, and four wells were used for each combination of various drug concentrations. A solvent was placed into the first row as the control group. After the cells were cultured for 2 days, the culture solution was drawn and discarded, and a culture solution containing 500 μg/mL of MTT (200 μL) was added to culture for another 4 hours. The culture solution was drawn and discarded, and 200 μL of DMSO was added, and then the microwell plate spectrometer was used to measure the absorbance of the cells at a wavelength of 570 nm. The cell viability rate and mortality rate and the concentrations of temozolomide that reached the mortality rate of 50% of various brain cancer cell lines (IC50) were calculated based on the absorbance.
In a 96-microwell plate, each well was cultured with 3×10^3 cells of brain cancer cell line 8901 or GBM22-TMZ with temozolomide-resistance. […] The microwell plate spectrometer was then used to measure the absorbance of the cells at a wavelength of 570 nm. […]
Assay [5] deals with brain cancer cell line 8901. Nature of the assay: MTT cell viability assay, 8901 (with CalcuSyn combination index). The conditions noted are these: for pIC50: 48 h, single agent, cultured 2 days, MTT. The format is cell-based.
Excerpt: as §1

Assay [6] concerns brain cancer cell line G5T/VGH. Nature of the assay: MTT cell viability assay, G5T/VGH. The format is cell-based.
Excerpt: as §1

Assay [7] concerns brain cancer cell line GBM22-TMZ. Nature of the assay: In vivo subcutaneous tumor transplant test. The arrangement: species or system Balb/c nude mice. The conditions noted are these: 28th day. The method, then: An in vivo test was carried out by a subcutaneous tumor transplant mode to observe the anti-tumor activity of (Z)-butylidenephthalide, temozolomide, or their combination in vivo.
First, 2×10^6 cells of brain cancer cell line GBM22-TMZ with temozolomide-resistance were cultured sterilely and subcutaneously injected to Balb/c nude mice (purchased from the National Laboratory Animal Center, Taiwan) to carry out the in vivo tumor transplant experiment. When the tumor was grown to 100 mm^3 (length×width×width/2), the subcutaneous administration was carried out for treatment. On the contralateral side of the tumor tissue, at a position more than 1.5 cm, (Z)-butylidenephthalide was injected, or temozolomide was orally administrated, once per day consecutively for 5 days. In the treatment group in which (Z)-butylidenephthalide and temozolomide were administrated in combination, (Z)-butylidenephthalide was first subcutaneously administrated (SC), and 2 hours later, temozolomide was orally administrated (PO). After administration on the 5th day, the tumor size and the body weight of the mice were observed continuously for 28 days, and were measured every 3 days. The measurement value of the tumor size on the 28th day was used as the assessment result of the inhibiting activity on tumor growth. The smaller the value, the better the inhibition effect. […] There was a significant difference when P value was less than […]. The results are shown in Table 7, and FIGS. 11A and 11B.

The test system of assay [8] is MGMT. Nature of the assay: MGMT protein expression (SDS-PAGE, western blotting) in 8901. The conditions noted are these: as concentration increased, treated 3 to 48 hours, FIG. 4. The format is cell-based. The method, then:
(§2) Brain cancer cell lines 8901 and GBM22-TMZ with temozolomide-resistance were cultured in a petri dish with a diameter of 10 cm, respectively. A PBS solution was used to rinse the cells after the cell proliferation reached to 60% by volume of the dish. (Z)-butylidenephthalide or (E)-butylidenephthalide was added to treat the cells for 3 to 48 hours, and then the cells were collected. The total RNA of the cells was extracted and reverse transcribed into cDNA (using 50 micro-mole of […] and 50 pico-mole of random hexamers primer). One unit of ExTaq DNA polymerase, 200 nM dNTP (1 μL), and 2.5 mM of MgCl2 (1 μL) were added, and then 20 mM of MGMT nucleotide primers (1 μL each) and 50 μL of water were added.
(§3) In another aspect, the intracellular proteins of the aforesaid brain cancer cell lines 8901 and GBM22-TMZ were collected. SDS-PAGE and western blotting were used to analyze the expression of the MGMT protein in the brain cancer cell lines.

For assay [9], the system named is MGMT. Nature of the assay: MGMT RNA expression (RT-PCR, gel electrophoresis) in 8901. The format is cell-based. The conditions noted are these: as concentration increased, treated 3 to 48 hours, FIG. 3. The method, then:
as §2
The sample was placed into a polymerase chain reaction (PCR) system (GeneAmp PCR System 2400, Perkin Elmer, USA). The condition was set as: denaturing, 94° C., 30 s; annealing, 55° C., 30 s; extension, […]; 30 cycles; and finally 72° C., 10 minutes. Afterwards, the system temperature was decreased to 4° C. to terminate the reaction. The product from the PCR was analysed by a 1.5% gel electrophoresis. The gel was analysed by Fluoro-Chem imaging system (Alpha InnoTech Cooperation) to determine the expression level of MGMT gene.

Assay [10] has as its system MGMT. Nature of the assay: MGMT protein expression (SDS-PAGE, western blotting) in GBM22-TMZ. The conditions noted are these: as concentration increased, FIG. 5. It counts as cell-based, human. The method, then:
as §2, §3

Where [11] appears, read: 48 h, single agent, cultured 2 days, MTT.
Where [12] appears, read: read-out: Viability rate of DBTRG(%).

In the case of `Cn1nnc2c(C(N)=O)ncn2c1=O` [temozolomide], the Survival rate in assay [1] (temozolomide (66 mg/kg), Day 0) was found to be 100%; in assay [1] (temozolomide (66 mg/kg), Day 5), 100%; in assay [1] (temozolomide (66 mg/kg), Day 8), 100%; in [1] (temozolomide (66 mg/kg), Day 11), 66%; in assay [1] (temozolomide (66 mg/kg), Day 14) it was 66%; in assay [1] (temozolomide (66 mg/kg), Day 18), 66%. Besides, the Survival rate turned out to be 33% in assay [1] (temozolomide (66 mg/kg), Day 21); 0% in [1] (temozolomide (66 mg/kg), Day 28); 0% in assay [1] (temozolomide (66 mg/kg), Day 30). For the same compound, the pIC50 in [2] (DBTRG, single agent, cultured 2 days, MTT) is 2.78; in assay [3] (setting [11]) it was 3.08; in assay [4], < 2.49; in assay [5], 2.92; in assay [6] (setting [11]), 2.78. Further, in assay [7] (PO consecutively for 5 days, 66 mg/kg/day), the “Relative tumor size (fold)” value is 4.3 fold.

Take `CCC/C=C1/OC(=O)c2ccccc21` [(E)-butylidenephthalide, reference compound]: the viability at 500 µM in assay [2] (setting [12]) was determined as 88%. In assay [2] (Concentration 1500 μM, read-out: Viability rate of DBTRG(%)), the viability at 1500 µM was found to be 81%. Moreover, the viability at 2500 µM in assay [2] (Concentration 2500 μM, read-out: Viability rate of DBTRG(%)) was 70%. The “killing of brain cancer cells” value in assay [2] (DBTRG, high dosage of 2500 μM) is “cannot kill brain cancer cells effectively”. In the assay with MGMT [8], the “expression of proteins of MGMT” value was “no significant changes”. The “expression of RNA of MGMT” value with MGMT [9] was “no significant changes”.

Take `CCC/C=C1\OC(=O)c2ccccc21` [(Z)-butylidenephthalide]: the Survival rate in assay [1] ((Z)-butylidenephthalide (50 mg/kg), Day 0) is 100%; in [1] ((Z)-butylidenephthalide (50 mg/kg), Day 5) it was 100%; in assay [1] ((Z)-butylidenephthalide (50 mg/kg), Day 8), 100%; in assay [1] ((Z)-butylidenephthalide (50 mg/kg), Day 11), 100%; in assay [1] ((Z)-butylidenephthalide (50 mg/kg), Day 14), 100%; in assay [1] ((Z)-butylidenephthalide (50 mg/kg), Day 18), 100%. The Survival rate in [1] ((Z)-butylidenephthalide (50 mg/kg), Day 21) turned out to be 66%; in assay [1] ((Z)-butylidenephthalide (50 mg/kg), Day 28), 0%; in assay [1] ((Z)-butylidenephthalide (50 mg/kg), Day 30), 0%; in assay [1] ((Z)-butylidenephthalide (100 mg/kg), Day 0), 100%; in assay [1] ((Z)-butylidenephthalide (100 mg/kg), Day 5), 100%; in assay [1] ((Z)-butylidenephthalide (100 mg/kg), Day 8), 100%. Further, the Survival rate in assay [1] ((Z)-butylidenephthalide (100 mg/kg), Day 11) is 100%; in [1] ((Z)-butylidenephthalide (100 mg/kg), Day 14), 100%; in assay [1] ((Z)-butylidenephthalide (100 mg/kg), Day 18), 100%; in [1] ((Z)-butylidenephthalide (100 mg/kg), Day 21), 66%; in assay [1] ((Z)-butylidenephthalide (100 mg/kg), Day 28), 0%; in assay [1] ((Z)-butylidenephthalide (100 mg/kg), Day 30) it was 0%. Moreover, the negative logarithm of the IC50 (pIC50) in [2] is ~3.60; in [4], 3.35; in [5], 3.66. For the same compound, the viability at 125 µM in [2] (Concentration 125 μM, read-out: Viability rate of DBTRG(%)) worked out at 80%. Besides, the viability at 250 µM in assay [2] (Concentration 250 μM, read-out: Viability rate of DBTRG(%)) was found to be 58%. Further, in assay [2] (setting [12]), the viability at 500 µM is 30%. Besides, the “growth inhibition of brain cancer cell line” value was “effectively inhibit the growth” in assay [2] (DBTRG, 0 to 400 μM, FIG. 10); “effectively inhibit the growth” in [3] (0 to 400 μM, FIG. 10); “effectively inhibit the growth” in assay [5] (0 to 400 μM, FIG. 10); “effectively inhibit the growth” in assay [6] (0 to 400 μM, FIG. 10). Moreover, the “expression of proteins of MGMT” value in the assay on MGMT [8] and in the assay on MGMT [10] was “reduced” throughout. The “expression of RNA of MGMT” value in the assay with MGMT [9] was “reduced”. Moreover, the “Relative tumor size (fold)” value was determined as 2.7 fold in [7] (SC consecutively for 5 days, 50 mg/kg/day) and 2.6 fold in [7] (SC consecutively for 5 days, 100 mg/kg/day).
